# Article PMC4890880 (ACS infectious diseases, 2016)
# Like-named read-outs stand apart in the source and are kept apart here.
# Columns and labels:
# HepG2-A16-CD81EGFP cells = conditions: sheet 2nd round; for IC50: read-out: Tox_IC50, HepG2 cytotoxicity; for Tox_max_inhibition (%): maximal inhibition in dose response
# [1] = test system: Plasmodium berghei (Pb-Luc) exoerythrocytic-stage parasites; conditions: for normalized signal at concentration 0.000508053 / normalized signal at concentration 0.00152416 / normalized signal at concentration 0.00457247 / normalized signal at concentration 0.0137174 / normalized signal at concentration 0.0411523 / normalized signal at concentration 0.123457 / normalized signal at concentration 0.37037 / normalized signal at concentration 1.11111 / normalized signal at concentration 3.33333 / normalized signal at concentration 10: fraction of control; for IC50: read-out: PbLuc_IC50; for IC50 / PbLuc_max_inhibition (%): sheet 2nd round; for PbLuc_max_inhibition (%): maximal inhibition in dose response
# [2] = second series of columns (replicate)
# [3] = first series of dose-response columns
# [4] = second series of dose-response columns
smiles,measurement,setting,value
C[C@@H]1CCCCO[C@H](CN(C)S(=O)(=O)c2ccc(F)cc2)[C@@H](C)CN([C@@H](C)CO)C(=O)c2cc(N(C)C)ccc2O1 [BRD-K27035180-001-01-0],IC50,HepG2-A16-CD81EGFP cells,> 10 µM
same,Tox_max_inhibition (%),HepG2-A16-CD81EGFP cells,10%
same,normalized signal at concentration 0.000508053,[1]; first series of columns,0.9801
same,normalized signal at concentration 0.00152416,[1]; first series of columns,1.117
same,normalized signal at concentration 0.00457247,[1]; first series of columns,0.8737
same,normalized signal at concentration 0.0137174,[1]; first series of columns,0.9285
same,normalized signal at concentration 0.0411523,[1]; first series of columns,1.068
same,normalized signal at concentration 0.123457,[1]; first series of columns,0.9867
same,normalized signal at concentration 0.37037,[1]; first series of columns,0.8491
same,normalized signal at concentration 1.11111,[1]; first series of columns,1.048
same,normalized signal at concentration 3.33333,[1]; first series of columns,0.9262
same,normalized signal at concentration 10,[1]; first series of columns,0.8261
same,IC50,"[1]; Pb-Luc exoerythrocytic stage, 10-point dose response, top concentration 10",> 10 µM
same,normalized signal at concentration 0.000508053,[1]; [2],0.9613
same,normalized signal at concentration 0.00152416,[1]; [2],1.064
same,normalized signal at concentration 0.00457247,[1]; [2],0.9935
same,normalized signal at concentration 0.0137174,[1]; [2],0.8637
same,normalized signal at concentration 0.0411523,[1]; [2],1.045
same,normalized signal at concentration 0.123457,[1]; [2],0.8684
same,normalized signal at concentration 0.37037,[1]; [2],1.143
same,normalized signal at concentration 1.11111,[1]; [2],0.8369
same,normalized signal at concentration 3.33333,[1]; [2],1.121
same,normalized signal at concentration 10,[1]; [2],0.5603
same,PbLuc_max_inhibition (%),[1],44%
CN(C)C(=O)c1ccc(-c2ccc([C@@H]3[C@H]4CN(C(=O)CC5CC5)CC(=O)N4[C@H]3CO)cc2)cc1 [BRD-K27481961-001-01-1],IC50,HepG2-A16-CD81EGFP cells,> 10 µM
same,Tox_max_inhibition (%),HepG2-A16-CD81EGFP cells,6%
same,normalized signal at concentration 10,[1]; [3],1.04
same,normalized signal at concentration 0.000508053,[1]; first series,0.88
same,normalized signal at concentration 0.00152416,[1]; first series,0.98
same,normalized signal at concentration 0.00457247,[1]; first series,1.01
same,normalized signal at concentration 0.0137174,[1]; first series,0.77
same,normalized signal at concentration 0.0411523,[1]; first series,0.91
same,normalized signal at concentration 0.123457,[1]; first series,0.95
same,normalized signal at concentration 0.37037,[1]; first series,0.98
same,normalized signal at concentration 1.11111,[1]; first series,1.00
same,normalized signal at concentration 3.33333,[1]; first series,0.94
same,IC50,"[1]; Broad compounds, dose response",> 10 µM
same,normalized signal at concentration 10,[1]; [4],0.89
same,normalized signal at concentration 0.000508053,[1]; second series,1.05
same,normalized signal at concentration 0.00152416,[1]; second series,1.04
same,normalized signal at concentration 0.00457247,[1]; second series,0.89
same,normalized signal at concentration 0.0137174,[1]; second series,0.89
same,normalized signal at concentration 0.0411523,[1]; second series,0.96
same,normalized signal at concentration 0.123457,[1]; second series,1.12
same,normalized signal at concentration 0.37037,[1]; second series,1.12
same,normalized signal at concentration 1.11111,[1]; second series,0.98
same,normalized signal at concentration 3.33333,[1]; second series,1.20
same,PbLuc_max_inhibition (%),[1],23%
CN(C)c1ccc2c(c1)[C@@H]1C[C@@H](CC(=O)NC3CCCCC3)O[C@@H](CO)[C@@H]1O2 [BRD-K29474997-001-01-2],IC50,HepG2-A16-CD81EGFP cells,> 10 µM
same,Tox_max_inhibition (%),HepG2-A16-CD81EGFP cells,12%
same,normalized signal at concentration 10,[1]; [3],1.33
same,normalized signal at concentration 0.000508053,[1]; first series,1.31
same,normalized signal at concentration 0.00152416,[1]; first series,1.11
same,normalized signal at concentration 0.00457247,[1]; first series,1.19
same,normalized signal at concentration 0.0137174,[1]; first series,0.90
same,normalized signal at concentration 0.0411523,[1]; first series,0.87
same,normalized signal at concentration 0.123457,[1]; first series,0.89
same,normalized signal at concentration 0.37037,[1]; first series,0.92
same,normalized signal at concentration 1.11111,[1]; first series,1.25
same,normalized signal at concentration 3.33333,[1]; first series,0.99
same,IC50,"[1]; Broad compounds, dose response",> 10 µM
same,normalized signal at concentration 10,[1]; [4],1.28
same,normalized signal at concentration 0.000508053,[1]; second series,1.12
same,normalized signal at concentration 0.00152416,[1]; second series,1.06
same,normalized signal at concentration 0.00457247,[1]; second series,1.06
same,normalized signal at concentration 0.0137174,[1]; second series,1.04
same,normalized signal at concentration 0.0411523,[1]; second series,1.09
same,normalized signal at concentration 0.123457,[1]; second series,0.92
same,normalized signal at concentration 0.37037,[1]; second series,0.91
same,normalized signal at concentration 1.11111,[1]; second series,1.04
same,normalized signal at concentration 3.33333,[1]; second series,1.16
same,PbLuc_max_inhibition (%),[1],13%
COc1ccc(S(=O)(=O)N(C)C[C@H]2Oc3ccc(NC(=O)Cc4cn(C)c5ccccc45)cc3C(=O)N([C@H](C)CO)C[C@@H]2C)cc1 [BRD-K30240821-001-02-4],IC50,HepG2-A16-CD81EGFP cells,> 10 µM
same,Tox_max_inhibition (%),HepG2-A16-CD81EGFP cells,8.48%
same,normalized signal at concentration 10,[1]; [3],0.7772
same,normalized signal at concentration 0.000508053,[1]; first series,0.8923
same,normalized signal at concentration 0.00152416,[1]; first series,0.848
same,normalized signal at concentration 0.00457247,[1]; first series,0.7066
same,normalized signal at concentration 0.0137174,[1]; first series,0.8032
same,normalized signal at concentration 0.0411523,[1]; first series,0.8311
same,normalized signal at concentration 0.123457,[1]; first series,1.098
same,normalized signal at concentration 0.37037,[1]; first series,0.9739
same,normalized signal at concentration 1.11111,[1]; first series,0.9836
same,normalized signal at concentration 3.33333,[1]; first series,0.9041
same,IC50,"[1]; Broad compounds, dose response",> 10 µM
same,normalized signal at concentration 10,[1]; [4],0.9286
same,normalized signal at concentration 0.000508053,[1]; second series,0.993
same,normalized signal at concentration 0.00152416,[1]; second series,0.893
same,normalized signal at concentration 0.00457247,[1]; second series,0.9938
same,normalized signal at concentration 0.0137174,[1]; second series,0.8741
same,normalized signal at concentration 0.0411523,[1]; second series,1.056
same,normalized signal at concentration 0.123457,[1]; second series,0.8643
same,normalized signal at concentration 0.37037,[1]; second series,1.021
same,normalized signal at concentration 1.11111,[1]; second series,1.07
same,normalized signal at concentration 3.33333,[1]; second series,1.082
same,PbLuc_max_inhibition (%),[1],29%
